Series [1] in a line: Iron source fed to gestating sows; piglet blood hemoglobin, hematocrit and serum ferritin at farrowing. The format is in vivo, sows / piglets. The note with it: sows fed iron source daily from 4 weeks before farrowing. From the text: Ferrous iron was chelated to various high nitrogen-containing amino acid chelates. Six grams of such a chelate formula (0.6 g Fe) was fed daily to gestating sows beginning 4 weeks before expected farrowing. Another group of gestating sows received 2 g daily of ferrous fumarate (0.67 g Fe) for the same period. One week prior to farrowing, the dosages of iron were doubled for each group.
At farrowing blood samples were taken from each piglet and assayed for hemoglobin, hematocrit, and serum ferritin. The hemoglobin and hematocrit represent current iron status but serum ferritin represents iron storage for future use.

The conditions of series [2]: chicks, 21 Day, 40 mg zinc per day per kg feed.
Protocol: (§1) A group of one day old chicks were administered 40 mg zinc per day per kg feed for 21 consecutive days. […] At the end of 21 days, all chicks in all groups were killed, freeze dried, and a whole body assay for zinc performed.
The conditions of series [3]: chicks, 21 days, 40 mg zinc per day per kg feed.
Protocol: as §1
The nature of series [4]: Isotope study: deposition of 65zinc into male sex organ tissues after single intravenous dose. The format is in vivo. The note with it: zinc sufficient adult male rats, single I.V. dose 0.06 mg zinc, 24 hours post-dosing. On the procedure:
In an isotope study, three groups of zinc sufficient adult male rats (6/group) received a single intravenous (I.V.) dose of 0.06 mg zinc containing 10 microcurines of zinc chelated to either arginine or glycine or as zinc chloride (ZnCl2). The arginine contained about twice as much nitrogen bonded to the zinc atom as did glycine. The ZnCl2 had no nitrogen bonded to the zinc. Twenty four hours post-dosing, all animals were sacrificed and their testes, epididymis, and seminal vesicles were assayed for zinc. The male sex organs were targeted for these zinc assays because of the dominant role zinc plays in their proper functioning. In theory, the uptake of zinc from the three sources into the tissues should have been equivalent since all three sources were administered by I.V. and none of the animals was zinc deficient.
As noted above, arginine has about twice as much nitrogen in the ligand as glycine.

A short description of series [5]: Tied-off ileum section dosed with 65Zn solution; 65Zn in liver, heart and spleen by liquid scintillation. The settings on record: non-fasted rats, 1×10^−4M solution in tied off ileum section, 2 hours post dosing. The format is in vivo. How it is done:
Non-fasted rats were first anesthetized and then their intestines exposed. A 10 cm section of the ileum was tied off at both ends extending 15 cm to 5 cm proximal to the ileoceal valve. At each end, a 0.5 cm incision was made allowing the tied off section to be thoroughly washed with Ringers solution via the incisions. A solution containing ^65ZnCl2 or ^65Zn Histidine (1×10^−4M) was introduced into the tied off section. At 2 hours post dosing, the rats were killed by cervical dislocation. Their livers, hearts, and spleens were taken, weighed, dissected, and assayed by liquid scintillation for ^65Zn.

Marks after values point to notes of the source that are not given here.

Regarding `O=C([O-])/C=C/C(=O)[O-].[Fe+2]` [Ferrous Fumarate, ferrous fumarate], the “Serum Ferritin” value in series [1] (a/b P < 0.01) is reported as 20.1^b ng/ml. In series [1] (doubled in the last week), this molecule displayed a Hematocrit of 33.2% and a Hemoglobin of 9.7 g/dL.

As for `O=[N+]([O-])[O-].O=[N+]([O-])[O-].[Zn+2]` [Zn Nitrate, zinc nitrate], in series [2], the “Body Weight” value worked out at 734.98 g and the Gain/Feed is recorded as 0.74 g. For the same molecule, the “zinc retention in the body (in words)” value in series [3] is recorded as “similar”.

Consider `[Cl-].[Cl-].[Zn+2]` [^65Zn Chloride, zinc chloride], for which the “Deposition of ^65zinc into tissue: Epididymis” value in series [4] (epididymis) is given as “Negligible”. Also, the “Deposition of ^65zinc into tissue: Seminal Vesicle” value in series [4] (seminal vesicle) is given as “Negligible”. The “Deposition of ^65zinc into tissue: Testes” value in series [4] (testes) is reported as “Negligible”. Also, the “^65Zn in tissue: Heart” value in series [5] (heart) is 1.00 ± 0.33 number × 10^−10 Zn/gm. In addition, the “^65Zn in tissue: Liver” value in series [5] (liver) was 8.67 ± 5.67 number × 10^−10 Zn/gm. In addition, the “^65Zn in tissue: Spleen” value in series [5] (spleen) is listed as 3.50 ± 0.25 number × 10^−10 Zn/gm.

With “zinc glycinate (1:1) [Zn Glycinate (1:1)]”, in series [2], the “Body Weight” value is reported as 817.08 g and the Gain/Feed turned out to be 0.77 g. For the same molecule, the “zinc retention in the body (in words)” value in series [3] is recorded as “similar”.

As for `NCC(=O)[O-].NCC(=O)[O-].[Zn+2]` [Zn Bisglycinate (2:1), zinc bisglycinate (2:1)], in series [2], the “Body Weight” value was determined as 812.55 g and the Gain/Feed entry was “.078 g”. In addition, in series [3], the “zinc retention in the body (in words)” value is “increased to some degree”.

In the case of “zinc bisarginate (2:1) [Zn Bisarginate (2:1)]”, in series [2], the “Body Weight” value amounted to 829.15 g and the Gain/Feed entry is on record as “.078 g”. Further, in series [3], the “zinc retention in the body (in words)” value is reported as “increased over zinc bisglycinate (2:1) significantly”.

The record behind these values is patent US20080194679A1, “Compositions and methods for increasing metabolic activity in animal tissue” (priority 2007, published 2008).
